{"source": "ChEMBL document CHEMBL5661943", "about": "“ASAP - In vitro antiviral effect” (2024)", "key": {"Zika virus": {"system": "Zika virus", "assay": "Functional CPE-based assay to measure dose dependent changes in antiviral-drug inhibitory efficacy against Zika virus MR766 in Vero E6 miRFP670 cells. Cells are treated with antiviral candidates that are serially diluted. EC50 is reported via analysis of MTS assay as a readout of CPE. The assay has been performed by KU Leuven.", "type": "organism-based, Chlorocebus sabaeus, Vero C1008", "details": "Zika virus"}, "dengue virus type 2": {"system": "dengue virus type 2", "assay": "Functional assay to measure dose dependent changes in antiviral-drug inhibitory efficacy against Dengue virus type 2 New Guinea C in Vero E6 miRFP670 cells (cotreated with P-gp inhibitor, CP100356). Cells are treated with antiviral candidates that are serially diluted, following infection, cells are fixed. EC50 is reported via analysis of fluorescence intensity using high-content imager. The …", "type": "organism-based, Chlorocebus sabaeus, Vero C1008", "details": "Dengue virus"}}}
{"smiles": "CC(C)(C)c1cc(Br)cc(C(=O)Nc2ccc3c(c2)CNC3)c1", "values": [{"measurement": "EC50", "setting": "Zika virus; Vero C1008", "value": "> 50", "unit": "µM"}, {"measurement": "EC90", "setting": "Zika virus; Vero C1008, Baseline response 0 %, Hill slope -3.526, Maximum measured 2.777 %, Maximum response 100 %, Minimum measured -2.992 %, R squared 0.044", "value": "> 50", "unit": "µM"}]}
{"smiles": "O=C(O)c1cc(Cl)c(F)cc1S(=O)(=O)Nc1ccc(Oc2ccccc2Cl)cc1", "values": [{"measurement": "EC50", "setting": "Zika virus; Vero C1008", "value": 39.6, "unit": "µM"}, {"measurement": "EC90", "setting": "Zika virus; Vero C1008, Baseline response 0 %, EC90 CI (lower) 44.524 uM, EC90 CI (upper) 54.445 uM, Hill slope 10.107, Maximum measured 91.318 %, Maximum response 100 %, Minimum measured 0.941 %, R squared 0.971", "value": 49.2, "unit": "µM"}, {"measurement": "EC50", "setting": "dengue virus type 2; Vero C1008", "value": 25.1, "unit": "µM"}, {"measurement": "EC90", "setting": "dengue virus type 2; Vero C1008, Baseline response 0 %, Hill slope -22.82, Maximum measured 108.329 %, Maximum response 100 %, Minimum measured 0.118 %, P-gp concentration 500 nM, R squared 0.881, P-gp inhibitor CP100356", "value": 27.7, "unit": "µM"}]}
{"smiles": "NCc1cccc(NC(=O)c2cc(Cl)cc(C(N)=O)c2)c1", "values": [{"measurement": "EC50", "setting": "Zika virus; Vero C1008", "value": "< 0.391", "unit": "µM"}, {"measurement": "EC90", "setting": "Zika virus; Vero C1008, Baseline response 0 %, Hill slope -0.109, Maximum measured 5.527 %, Maximum response 100 %, Minimum measured 1.124 %, R squared 0.046", "value": "< 0.391", "unit": "µM"}, {"measurement": "EC50", "setting": "dengue virus type 2; Vero C1008", "value": "> 50", "unit": "µM"}, {"measurement": "EC90", "setting": "dengue virus type 2; Vero C1008, Maximum measured 162.876 %, Minimum measured 96.337 %, P-gp concentration 500 nM, P-gp inhibitor CP100356", "value": "> 50", "unit": "µM"}]}
{"smiles": "Cn1ncc2c(C(=O)Nc3ccc4c(c3)CNC4)cc(Br)cc21", "values": [{"measurement": "EC50", "setting": "Zika virus; Vero C1008", "value": "> 50", "unit": "µM"}, {"measurement": "EC90", "setting": "Zika virus; Vero C1008, Baseline response 0 %, Hill slope 2.334, Maximum measured 28.881 %, Maximum response 100 %, Minimum measured -5.706 %, R squared 0.821", "value": "> 50", "unit": "µM"}, {"measurement": "EC50", "setting": "dengue virus type 2; Vero C1008", "value": "< 0.391", "unit": "µM"}, {"measurement": "EC90", "setting": "dengue virus type 2; Vero C1008, Baseline response 0 %, Hill slope 1.42, Maximum measured 130.593 %, Maximum response 100 %, Minimum measured 71.5 %, P-gp concentration 500 nM, R squared 0.202, P-gp inhibitor CP100356", "value": "< 0.391", "unit": "µM"}]}
{"smiles": "NCc1cccc(NC(=O)c2cc(Cl)cc3c2cnn3CC2CC2)c1", "values": [{"measurement": "EC50", "setting": "Zika virus; Vero C1008", "value": "> 50", "unit": "µM"}, {"measurement": "EC90", "setting": "Zika virus; Vero C1008, Baseline response 0 %, Hill slope 0.179, Maximum measured 64.548 %, Maximum response 100 %, Minimum measured -3.549 %, R squared 0.025", "value": "> 50", "unit": "µM"}, {"measurement": "EC50", "setting": "dengue virus type 2; Vero C1008", "value": 12.4, "unit": "µM"}, {"measurement": "EC90", "setting": "dengue virus type 2; Vero C1008", "value": "> 12.5", "unit": "µM"}]}
{"smiles": "N#C[C@H](Nc1cncc(-c2nn[nH]n2)c1)c1cc(Cl)cc(NC(=O)OCc2ccccc2)c1", "values": [{"measurement": "EC50", "setting": "Zika virus; Vero C1008", "value": "> 50", "unit": "µM"}, {"measurement": "EC90", "setting": "Zika virus; Vero C1008, Baseline response 0 %, Hill slope -0.546, Maximum measured 2.599 %, Maximum response 100 %, Minimum measured -1.254 %, R squared 0.412", "value": "> 50", "unit": "µM"}]}
{"smiles": "NCc1cc(Cl)cc(C(=O)Nc2ccc3c(c2)CNC3)c1", "values": [{"measurement": "EC50", "setting": "Zika virus; Vero C1008", "value": "> 50", "unit": "µM"}, {"measurement": "EC90", "setting": "Zika virus; Vero C1008, Maximum measured 0.38 %, Minimum measured -0.268 %", "value": "> 50", "unit": "µM"}, {"measurement": "EC50", "setting": "dengue virus type 2; Vero C1008", "value": "> 50", "unit": "µM"}, {"measurement": "EC90", "setting": "dengue virus type 2; Vero C1008, Maximum measured 110.007 %, Minimum measured 106.028 %, P-gp concentration 500 nM, P-gp inhibitor CP100356", "value": "> 50", "unit": "µM"}]}
{"smiles": "O=C(Nc1cc(Cl)cc([C@H]2[C@H](CO)[C@@H]2c2cccc(-c3nn[nH]n3)c2)c1)OCc1ccccc1", "values": [{"measurement": "EC50", "setting": "Zika virus; Vero C1008", "value": "> 50", "unit": "µM"}, {"measurement": "EC90", "setting": "Zika virus; Vero C1008, Baseline response 0 %, Hill slope -0.077, Maximum measured 3.793 %, Maximum response 100 %, Minimum measured 1.644 %, R squared 0.146", "value": "> 50", "unit": "µM"}]}
{"smiles": "CCNC(=O)Nc1cc(Cl)cc(C(=O)Nc2cccc(CN)c2)c1", "values": [{"measurement": "EC50", "setting": "Zika virus; Vero C1008", "value": "> 50", "unit": "µM"}, {"measurement": "EC90", "setting": "Zika virus; Vero C1008, Baseline response 0 %, Hill slope -0.392, Maximum measured 2.06 %, Maximum response 100 %, Minimum measured -2.343 %, R squared 0.131", "value": "> 50", "unit": "µM"}, {"measurement": "EC50", "setting": "dengue virus type 2; Vero C1008", "value": "> 50", "unit": "µM"}, {"measurement": "EC90", "setting": "dengue virus type 2; Vero C1008, Maximum measured 108.516 %, Minimum measured 107.498 %, P-gp concentration 500 nM, P-gp inhibitor CP100356", "value": "> 50", "unit": "µM"}]}
{"smiles": "O=C(Nc1cc(Cl)cc(C(=O)Nc2ccc3c(c2)CNCC3)c1)OCc1ccccc1", "values": [{"measurement": "EC50", "setting": "Zika virus; Vero C1008", "value": "< 0.391", "unit": "µM"}, {"measurement": "EC90", "setting": "Zika virus; Vero C1008, Baseline response 0 %, Hill slope -0.286, Maximum measured 50.319 %, Maximum response 100 %, Minimum measured -3.545 %, R squared 0.037", "value": "< 0.391", "unit": "µM"}, {"measurement": "EC50", "setting": "dengue virus type 2; Vero C1008", "value": 1.52, "unit": "µM"}, {"measurement": "EC90", "setting": "dengue virus type 2; Vero C1008", "value": 1.8, "unit": "µM"}]}
